Experimental data: BindingDB's records for patent US20240400545 (Hangzhou Innogate Pharma, 2024)

Biological target: T1, Histone acetyltransferase KAT6A [507-778] (Homo sapiens, UniProt Q92794)
T1 construct: 507-778
Assay: Inhibition of KAT6A Enzyme Activity Assay
Method: 1× experimental buffer (modified Tris buffer) was prepared, and the compounds were dissolved with 100% DMSO to form 10 mM reservoir solution and diluted according to a certain concentration gradient. The compounds were transferred to a 384-well plate using an automatic sampler Echo, and the final concentration of DMSO was 1%. 1× KAT6A enzyme (catalytic domain) solution was prepared. A mixed solution of [3H]-acetyl-CoA (PERKIN ELMER, Cat. No. NET290250UC) and the substrate peptide H3 (1-21) was prepared. 10 μL of the enzyme solution was transferred to the 384-well plate and incubated at room temperature for 15 minutes. 10 μL of the mixed solution of [3H]-acetyl-CoA and the substrate peptide H3 (1-21) were added to the plate to initiate the reaction. The plate was incubated at room temperature for 1 hour. 10 μL of the stop solution was added to terminate the reaction. 25 μL of the reaction solution was transferred to a Flashplate (Perkin Elmer, Cat. No. SMP410A001PK) and incubated at room temperature for 1 hour. The plate was read using Microbeta. The inhibition rate of the compounds was calculated using the formula of Excel: inhibition %=(Max-Signal)/(Max−Min)*100%. Where max is the value of the DMSO control, min is the value of the non-enzymatic control, and signal is the value of the well where the compound was tested.

T1 sequence (Q92794 507-778): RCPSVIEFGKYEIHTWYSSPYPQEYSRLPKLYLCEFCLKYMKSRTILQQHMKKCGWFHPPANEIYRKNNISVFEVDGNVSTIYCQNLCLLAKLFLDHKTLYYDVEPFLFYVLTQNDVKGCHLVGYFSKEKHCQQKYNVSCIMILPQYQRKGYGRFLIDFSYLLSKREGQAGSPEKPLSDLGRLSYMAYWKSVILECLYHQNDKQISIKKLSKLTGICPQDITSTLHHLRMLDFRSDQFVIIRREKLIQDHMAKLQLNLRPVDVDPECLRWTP

IC50 [µM] | Structure (SMILES)
< 0.02 | CC#Cc1ccc(OC)c(S(=O)(=O)Nc2noc3cc(Cn4cccn4)cc(OC)c23)c1 [US20240400545, Compound 13]
< 0.005 | COc1cc(C#CC2CC(F)(F)C2)cc(OC)c1S(=O)(=O)Nc1noc2cc(Cn3cccn3)cc(OC)c12 [US20240400545, Compound 15]
< 0.01 | C#Cc1ccc(S(=O)(=O)Nc2noc3cc(Cn4cccn4)cc(OC)c23)c(OC)c1 [US20240400545, Compound 11]
< 0.2 | COc1ccc(N2CCN(C)CC2)cc1S(=O)(=O)Nc1noc2cc(Cn3cccn3)cc(OC)c12 [US20240400545, Compound 5]
< 1 | COc1ccc(C#CC2CC2)cc1S(=O)(=O)NC(=O)c1cc2ccc(N(C)C)cc2o1 [US20240400545, Compound 8]
< 0.02 | CC#Cc1cccc(OC)c1S(=O)(=O)Nc1noc2cc(Cn3cccn3)cc(OC)c12 [US20240400545, Compound 23]
< 0.01 | COc1ccc(C#CC2CC2)cc1S(=O)(=O)Nc1noc2cc(Cn3cccn3)cc(OC)c12 [US20240400545, Compound 7]
< 0.01 | COc1cc(C#CC2CC2)ccc1S(=O)(=O)Nc1noc2cc(Cn3cccn3)cc(OC)c12 [US20240400545, Compound 12]
< 0.01 | CC#Cc1ccc(S(=O)(=O)Nc2noc3cc(Cn4cccn4)cc(OC)c23)c(OC)c1 [US20240400545, Compound 16]
< 0.02 | C#Cc1ccc(OC)c(S(=O)(=O)Nc2noc3cc(Cn4cccn4)cc(OC)c23)c1 [US20240400545, Compound 3]
< 0.005 | COc1cc(C#CC2CN(C(=O)OC(C)(C)C)C2)cc(OC)c1S(=O)(=O)Nc1noc2cc(Cn3cccn3)cc(OC)c12 [US20240400545, Compound 20]
< 0.005 | COc1cc(C#CC2CC2)cc(OC)c1S(=O)(=O)Nc1noc2cc(Cn3cccn3)cc(OC)c12 [US20240400545, Compound 10]
< 0.01 | CC#Cc1cc(OC)c(S(=O)(=O)Nc2noc3cc(Cn4cccn4)cc(OC)c23)c(OC)c1 [US20240400545, Compound 9]
< 0.01 | COc1cc(C#Cc2cccnc2)cc(O)c1S(=O)(=O)Nc1noc2cc(Cn3cccn3)cc(OC)c12 [US20240400545, Compound 19']
< 0.02 | COc1cc(C#CC2CN(C)C2)cc(OC)c1S(=O)(=O)Nc1noc2cc(Cn3cccn3)cc(OC)c12 [US20240400545, Compound 22]
< 0.1 | COc1ccc(N2CCOCC2)cc1S(=O)(=O)Nc1noc2cc(Cn3cccn3)cc(OC)c12 [US20240400545, Compound 6]
< 0.01 | COc1cc(C#CC2CNC2)cc(OC)c1S(=O)(=O)Nc1noc2cc(Cn3cccn3)cc(OC)c12 [US20240400545, Compound 21]
< 0.02 | COc1cc(C#CC2CN(C)C2)ccc1S(=O)(=O)Nc1noc2cc(Cn3cccn3)cc(OC)c12 [US20240400545, Compound 24]

Structure (SMILES) | IC50 [µM]
COc1cc(C#Cc2cccnc2)cc(OC)c1S(=O)(=O)Nc1noc2cc(Cn3cccn3)cc(OC)c12 [US20240400545, Compound 19] | < 0.005
